Measurements published in ChEMBL document CHEMBL1127702, “A proposed model of bradykinin bound to the rat B2 receptor and its utility for drug design” (J Med Chem, 1994).
Where a SMILES comes first, the peptide text is derived from it. [ ]: non-standard residue; d: D form. Oic = O=C(O)[C@@H]1C[C@@H]2CCCC[C@@H]2N1; Hyp = O=C(O)[C@@H]1C[C@@H](O)CN1; dTic = O=C(O)[C@H]1Cc2ccccc2CN1

Legend:
Cavia porcellus = organism: Cavia porcellus; assay: Compound was tested for bradykinin-induced contractions in guinea pig ileum; format: functional; details: read-out: pA2 (converted)
B2 bradykinin receptor = molecular target: T1, B2 bradykinin receptor (Cavia porcellus, UniProt O70526); assay: Binding affinity towards bradykinin receptor B2 using [3H]bradykinin
T1 sequence (O70526 whole entry): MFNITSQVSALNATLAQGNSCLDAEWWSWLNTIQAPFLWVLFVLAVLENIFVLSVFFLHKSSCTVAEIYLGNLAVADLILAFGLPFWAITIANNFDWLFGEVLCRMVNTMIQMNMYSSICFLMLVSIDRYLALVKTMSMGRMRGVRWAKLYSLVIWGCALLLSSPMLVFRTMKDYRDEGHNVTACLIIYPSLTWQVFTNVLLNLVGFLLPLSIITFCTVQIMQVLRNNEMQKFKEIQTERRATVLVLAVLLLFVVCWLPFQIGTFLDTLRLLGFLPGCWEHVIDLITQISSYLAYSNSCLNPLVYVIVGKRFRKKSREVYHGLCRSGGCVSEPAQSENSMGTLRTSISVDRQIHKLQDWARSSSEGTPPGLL

With `NC(N)=NCCC[C@@H](N)C(=O)N[C@@H](CCCN=C(N)N)C(=O)N1CCC[C@H]1C(=O)N1C[C@H](O)C[C@H]1C(=O)NCC(=O)N[C@@H](Cc1ccccc1)C(=O)N[C@@H](CO)C(=O)N1Cc2ccccc2C[C@@H]1C(=O)N1[C@H](C(=O)N[C@@H](CCCN=C(N)N)C(=O)O)C[C@@H]2CCCC[C@@H]21` (H-[dR]RP[Hyp]GFS[dTic][Oic]R-OH) the Kb (Cavia porcellus) was 1.58 nM and the Ki (B2 bradykinin receptor) was 0.11 nM.
